From publication PMC9754190, “Human CYP2B6 produces oxylipins from polyunsaturated fatty acids and reduces diet-induced obesity” (PLOS ONE, 2022)

Columns and labels:
CYP2B6 [1] = biological target: T1, CYP2B6 (Homo sapiens, UniProt P20813); experiment: Vivid CYP2B6 Blue fluorescence inhibition assay with recombinant baculosomes; type: biochemical; parameters: CYP2B6-containing baculosomes
T1 sequence (P20813 1-491): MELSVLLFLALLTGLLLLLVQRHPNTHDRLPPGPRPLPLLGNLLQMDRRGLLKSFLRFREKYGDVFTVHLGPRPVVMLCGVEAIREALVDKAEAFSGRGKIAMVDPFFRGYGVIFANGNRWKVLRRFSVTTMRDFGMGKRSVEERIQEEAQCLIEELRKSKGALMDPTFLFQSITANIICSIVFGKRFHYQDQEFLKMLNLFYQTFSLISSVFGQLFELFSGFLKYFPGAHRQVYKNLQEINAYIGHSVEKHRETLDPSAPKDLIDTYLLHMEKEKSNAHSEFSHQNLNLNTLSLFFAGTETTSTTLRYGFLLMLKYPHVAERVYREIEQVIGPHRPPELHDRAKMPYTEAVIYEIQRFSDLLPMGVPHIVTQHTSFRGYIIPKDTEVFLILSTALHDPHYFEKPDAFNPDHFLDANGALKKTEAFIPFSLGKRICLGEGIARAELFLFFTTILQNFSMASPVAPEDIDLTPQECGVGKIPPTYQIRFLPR

CYP2B6 [2] = biological target: T1, CYP2B6; experiment: biochemical

Compound	IC50 (CYP2B6 [1])	IC50 (CYP2B6 [2])
CCCCC/C=C\C/C=C\C/C=C\C/C=C\CCCC(=O)O [AA, arachidonic acid]	1510 nM	–
CC/C=C\C/C=C\C/C=C\CCCCCCCC(=O)O [ALA, α-linolenic acid]	–	4480 nM
CC/C=C\C/C=C\C/C=C\C/C=C\C/C=C\C/C=C\CCC(=O)O [DHA, docosahexaenoic acid]	2400 nM	–
CCCCC/C=C\C/C=C\CCCCCCCC(=O)O [LA, linoleic acid]	2900 nM	–
